Data as given in PubChem BioAssay AID1963842 (Molecular Pharmacology Branch, DTP, NCI, 2024).

Test system: 677734-321-R-J1-PDC complex spheroid viability
Assay: Anticancer human tumor 677734-321-R-J1-PDC patient-derived soft tissue sarcoma cell line growth inhibition [POLQ]
Conditions: for IC50: curve of first compound; for viability, T/C: stronger effect = lower value
How it was run: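 Growth inhibition in 3D: complex spheroids (tumor PDC, HUVEC, MSC) treated with POLQ inhibitor combinations; where Cmax unknown, highest tested concentration 10 microM, except SN-38 at 1 microM.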

[1] = second compound 0.0316 µM, first compound 0.00316 µM
[2] = second compound 0.0316 µM, first compound 0.01 µM
[3] = second compound 0.0316 µM, first compound 0.0316 µM
[4] = second compound 0.0316 µM, first compound 0.1 µM
[5] = second compound 0.1 µM, first compound 0.00316 µM
[6] = second compound 0.1 µM, first compound 0.01 µM
[7] = second compound 0.1 µM, first compound 0.0316 µM
[8] = second compound 0.1 µM, first compound 0.1 µM
[9] = second compound 0.316 µM, first compound 0.00316 µM
[10] = second compound 0.316 µM, first compound 0.01 µM
[11] = second compound 0.316 µM, first compound 0.0316 µM
[12] = second compound 0.316 µM, first compound 0.1 µM
[13] = second compound 1 µM, first compound 0.00316 µM
[14] = second compound 1 µM, first compound 0.01 µM
[15] = second compound 1 µM, first compound 0.0316 µM
[16] = second compound 1 µM, first compound 0.1 µM
[17] = second compound 3.16 µM, first compound 0.00316 µM
[18] = second compound 3.16 µM, first compound 0.01 µM
[19] = second compound 3.16 µM, first compound 0.0316 µM
[20] = second compound 3.16 µM, first compound 0.1 µM
[21] = second compound 10 µM, first compound 0.00316 µM
[22] = second compound 10 µM, first compound 0.01 µM
[23] = second compound 10 µM, first compound 0.0316 µM
[24] = second compound 10 µM, first compound 0.1 µM
[25] = second compound 0.0316 µM, first compound 0.316 µM
[26] = second compound 0.0316 µM, first compound 1 µM
[27] = second compound 0.1 µM, first compound 0.316 µM
[28] = second compound 0.1 µM, first compound 1 µM
[29] = second compound 0.316 µM, first compound 0.316 µM
[30] = second compound 0.316 µM, first compound 1 µM
[31] = second compound 1 µM, first compound 0.316 µM
[32] = second compound 1 µM, first compound 1 µM
[33] = second compound 3.16 µM, first compound 0.316 µM
[34] = second compound 3.16 µM, first compound 1 µM
[35] = second compound 10 µM, first compound 0.316 µM
[36] = second compound 10 µM, first compound 1 µM
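Note: spheroids exposed to compounds for one week.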
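Throughout, for viability, T/C: 100% = vehicle DMSO treated spheroids.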

Work on Cn1ncnc1[C@H]1c2n[nH]c(=O)c3cc(F)cc(c23)N[C@@H]1c1ccc(F)cc1 + Nc1ccc(C#CCN(C(=O)Cc2ncc(C(F)(F)F)cc2C(F)(F)F)c2ccc(F)cc2)nn1 yielded an IC50 (second compound 0.0316 µM) greater than 100 nM, an IC50 (second compound 0.1 µM) greater than 100 nM and an IC50 (second compound 0.316 µM) greater than 100 nM. For the same compound, the IC50 (second compound 1 µM) was greater than 100 nM, the IC50 (second compound 3.16 µM) was greater than 100 nM and the IC50 (second compound 10 µM) was greater than 100 nM. It also gave a viability, T/C (second compound 0.0316 µM, first compound 0.000316 µM) of 79.4%, a viability, T/C (second compound 0.0316 µM, first compound 0.001 µM) of 105% and a viability, T/C [1] of 86.2%. For the same compound, the viability, T/C [2] was 93.1%, the viability, T/C [3] was 99.6% and the viability, T/C [4] was 79.8%. For the same compound, the viability, T/C (second compound 0.1 µM, first compound 0.000316 µM) was 92.4%, the viability, T/C (second compound 0.1 µM, first compound 0.001 µM) was 89.2% and the viability, T/C [5] was 97.3%. For the same compound, the viability, T/C [6] was 100%, the viability, T/C [7] was 95% and the viability, T/C [8] was 88.7%. The viability, T/C (second compound 0.316 µM, first compound 0.000316 µM) was 113%, the viability, T/C (second compound 0.316 µM, first compound 0.001 µM) was 111% and the viability, T/C [9] was 109%. It also gave a viability, T/C [10] of 97.4%, a viability, T/C [11] of 75.2% and a viability, T/C [12] of 72.8%. The viability, T/C (second compound 1 µM, first compound 0.000316 µM) was 112%, the viability, T/C (second compound 1 µM, first compound 0.001 µM) was 97.8% and the viability, T/C [13] was 93.3%. It also gave a viability, T/C [14] of 95.2%, a viability, T/C [15] of 85.8% and a viability, T/C [16] of 68.1%. It also gave a viability, T/C (second compound 3.16 µM, first compound 0.000316 µM) of 108%, a viability, T/C (second compound 3.16 µM, first compound 0.001 µM) of 95.2% and a viability, T/C [17] of 100%. It also gave a viability, T/C [18] of 98%, a viability, T/C [19] of 99.7% and a viability, T/C [20] of 93.7%. For the same compound, the viability, T/C (second compound 10 µM, first compound 0.000316 µM) was 115%, the viability, T/C (second compound 10 µM, first compound 0.001 µM) was 95.9% and the viability, T/C [21] was 101%. The viability, T/C [22] was 94.1%, the viability, T/C [23] was 97.9% and the viability, T/C [24] was 87.2%.

In the case of C=CCn1c(=O)c2cnc(Nc3ccc(N4CCN(C)CC4)cc3)nc2n1-c1cccc(C(C)(C)O)n1 + COC1C(OC(N)=O)C(O)C(Oc2ccc3c(O)c(NC(=O)c4ccc(O)c(CC=C(C)C)c4)c(=O)oc3c2C)OC1(C)C, the IC50 (second compound 0.0316 µM) is reported as greater than 1000 nM, the IC50 (second compound 0.1 µM) is reported as greater than 1000 nM and the IC50 (second compound 0.316 µM) is reported as greater than 1000 nM. The IC50 (second compound 1 µM) was greater than 1000 nM, the IC50 (second compound 3.16 µM) was greater than 1000 nM and the IC50 (second compound 10 µM) was greater than 1000 nM. For the same compound, the viability, T/C [1] was 110%, the viability, T/C [2] was 93.9% and the viability, T/C [3] was 101%. The viability, T/C [4] was 102%, the viability, T/C [25] was 104% and the viability, T/C [26] was 61.6%. It also gave a viability, T/C [5] of 105%, a viability, T/C [6] of 106% and a viability, T/C [7] of 101%. For the same compound, the viability, T/C [8] was 99.3%, the viability, T/C [27] was 104% and the viability, T/C [28] was 72.4%. For the same compound, the viability, T/C [9] was 119%, the viability, T/C [10] was 105% and the viability, T/C [11] was 103%. It also gave a viability, T/C [12] of 111%, a viability, T/C [29] of 111% and a viability, T/C [30] of 70.2%. For the same compound, the viability, T/C [13] was 108%, the viability, T/C [14] was 102% and the viability, T/C [15] was 104%. For the same compound, the viability, T/C [16] was 112%, the viability, T/C [31] was 107% and the viability, T/C [32] was 66.3%. The viability, T/C [17] was 101%, the viability, T/C [18] was 103% and the viability, T/C [19] was 104%. It also gave a viability, T/C [20] of 115%, a viability, T/C [33] of 106% and a viability, T/C [34] of 69.8%. The viability, T/C [21] was 109%, the viability, T/C [22] was 110% and the viability, T/C [23] was 102%. For the same compound, the viability, T/C [24] was 106%, the viability, T/C [35] was 105% and the viability, T/C [36] was 76%.

Work on CCc1cc2c(N3CCc4c(cc(Cn5ccnc5)cc4-c4cn(C)nc4C(F)(F)F)C3=O)ccnc2c(OC)n1 + Nc1ccc(C#CCN(C(=O)Cc2ncc(C(F)(F)F)cc2C(F)(F)F)c2ccc(F)cc2)nn1 yielded an IC50 (second compound 0.0316 µM) greater than 10000 nM, an IC50 (second compound 0.1 µM) of 4780 nM and an IC50 (second compound 0.316 µM) of 7550 nM. The IC50 (second compound 1 µM) was 8720 nM, the IC50 (second compound 3.16 µM) was greater than 10000 nM and the IC50 (second compound 10 µM) was 5440 nM. The viability, T/C [3] was 89.5%, the viability, T/C [4] was 124% and the viability, T/C [25] was 110%. The viability, T/C [26] was 70.7%, the viability, T/C (second compound 0.0316 µM, first compound 3.16 µM) was 63.5% and the viability, T/C (second compound 0.0316 µM, first compound 10 µM) was 38.4%. For the same compound, the viability, T/C [7] was 88.5%, the viability, T/C [8] was 111% and the viability, T/C [27] was 101%. For the same compound, the viability, T/C [28] was 87.6%, the viability, T/C (second compound 0.1 µM, first compound 3.16 µM) was 54.9% and the viability, T/C (second compound 0.1 µM, first compound 10 µM) was 41.8%. It also gave a viability, T/C [11] of 120%, a viability, T/C [12] of 103% and a viability, T/C [29] of 87.1%. The viability, T/C [30] was 88.9%, the viability, T/C (second compound 0.316 µM, first compound 3.16 µM) was 86.1% and the viability, T/C (second compound 0.316 µM, first compound 10 µM) was 38.1%. For the same compound, the viability, T/C [15] was 127%, the viability, T/C [16] was 109% and the viability, T/C [31] was 100%. For the same compound, the viability, T/C [32] was 79.1%, the viability, T/C (second compound 1 µM, first compound 3.16 µM) was 63.9% and the viability, T/C (second compound 1 µM, first compound 10 µM) was 48%. The viability, T/C [19] was 95.7%, the viability, T/C [20] was 108% and the viability, T/C [33] was 113%. It also gave a viability, T/C [34] of 79.8%, a viability, T/C (second compound 3.16 µM, first compound 3.16 µM) of 64.3% and a viability, T/C (second compound 3.16 µM, first compound 10 µM) of 50.9%. For the same compound, the viability, T/C [23] was 102%, the viability, T/C [24] was 83.9% and the viability, T/C [35] was 83.7%. It also gave a viability, T/C [36] of 90.5%, a viability, T/C (second compound 10 µM, first compound 3.16 µM) of 62.6% and a viability, T/C (second compound 10 µM, first compound 10 µM) of 35.9%.

CCc1c2c(nc3ccc(O)cc13)-c1cc3c(c(=O)n1C2)COC(=O)[C@]3(O)CC + Nc1ccc(C#CCN(C(=O)Cc2ncc(C(F)(F)F)cc2C(F)(F)F)c2ccc(F)cc2)nn1 showed an IC50 (second compound 0.0316 µM) of less than 3.16 nM, an IC50 (second compound 0.1 µM) of less than 3.16 nM and an IC50 (second compound 0.316 µM) of less than 3.16 nM. It also gave an IC50 (second compound 1 µM) of less than 3.16 nM, an IC50 (second compound 3.16 µM) of less than 3.16 nM and an IC50 (second compound 10 µM) of less than 3.16 nM. The viability, T/C [1] was 22.2%, the viability, T/C [2] was 10.8% and the viability, T/C [3] was 5.47%. The viability, T/C [4] was 4.82%, the viability, T/C [25] was 4.02% and the viability, T/C [26] was 1.51%. The viability, T/C [5] was 19.4%, the viability, T/C [6] was 9.07% and the viability, T/C [7] was 6.31%. For the same compound, the viability, T/C [8] was 5.31%, the viability, T/C [27] was 3.85% and the viability, T/C [28] was 1.25%. The viability, T/C [9] was 24.3%, the viability, T/C [10] was 10.8% and the viability, T/C [11] was 5.47%. It also gave a viability, T/C [12] of 4.33%, a viability, T/C [29] of 3.5% and a viability, T/C [30] of 1.28%. The viability, T/C [13] was 22.5%, the viability, T/C [14] was 10.8% and the viability, T/C [15] was 5.38%. It also gave a viability, T/C [16] of 5.22%, a viability, T/C [31] of 4.16% and a viability, T/C [32] of 1.16%. For the same compound, the viability, T/C [17] was 22.5%, the viability, T/C [18] was 8.9% and the viability, T/C [19] was 5.24%. For the same compound, the viability, T/C [20] was 4.43%, the viability, T/C [33] was 5.24% and the viability, T/C [34] was 1.3%. For the same compound, the viability, T/C [21] was 25.9%, the viability, T/C [22] was 11% and the viability, T/C [23] was 6.72%. The viability, T/C [24] was 4.78%, the viability, T/C [35] was 3.27% and the viability, T/C [36] was 1.35%.
